Reference: the CheMixHub viscosity set

Test: xn = mol fraction of the nth substance listed

CN(C)C(=N)NC(=N)N.Cl + O
viscosity [mPa·s]
Details | 298.15 K | 303.15 K | 308.15 K | 313.15 K | 318.15 K
100 kPa, x1 = 0.00018 | 0.894 | – | – | – | –
100 kPa, x1 = 0.0003598 | 0.896 | 0.803 | – | – | –
100 kPa, x1 = 0.0005412 | 0.898 | 0.805 | 0.726 | – | –
100 kPa, x1 = 0.0007212 | 0.9 | – | – | 0.663 | –
100 kPa, x1 = 0.0009 | – | – | – | – | 0.607
100 kPa, x1 = 0.0009014 | 0.902 | 0.809 | 0.73 | 0.665 | –
100 kPa, x1 = 0.001079 | 0.904 | 0.811 | 0.732 | 0.667 | –
100 kPa, x1 = 0.001259 | 0.906 | – | 0.734 | 0.669 | –
100 kPa, x1 = 0.001439 | 0.908 | 0.815 | 0.736 | 0.671 | –
100 kPa, x1 = 0.001619 | 0.91 | 0.817 | 0.738 | 0.673 | –
100 kPa, x1 = 0.001798 | 0.912 | 0.819 | 0.74 | 0.675 | –
100 kPa, x1 = 0.0018 | – | – | 0.739 | 0.675 | 0.613
100 kPa, x1 = 0.0027 | – | – | 0.75 | 0.68 | 0.622
101 kPa, x1 = 0.00011 | – | – | 0.721 | – | 0.597
101 kPa, x1 = 0.000241 | – | – | 0.723 | – | 0.598
101 kPa, x1 = 0.000481 | – | – | 0.726 | – | 0.6
101 kPa, x1 = 0.000722 | 0.903 | – | 0.729 | – | 0.601
101 kPa, x1 = 0.000965 | 0.907 | – | 0.732 | – | 0.604
101 kPa, x1 = 0.00121 | 0.91 | – | 0.735 | – | 0.606

C[NH+]1CCCC1=O.Cc1ccc(S(=O)(=O)[O-])cc1 + O
viscosity [mPa·s], 100 kPa
Details | x1 = 0.00179 | x1 = 0.003588 | x1 = 0.005313 | x1 = 0.008042 | x1 = 0.01069 | x1 = 0.01417 | x1 = 0.02116 | x1 = 0.02631 | x1 = 0.03141
293.15 K | 1.079 | 1.149 | 1.212 | 1.311 | 1.404 | 1.533 | 1.806 | 2.029 | 2.274
298.15 K | 0.9575 | – | 1.073 | 1.157 | – | 1.358 | – | 1.819 | 2.048
303.15 K | 0.8523 | 0.9062 | 0.9554 | – | – | 1.201 | 1.42 | 1.611 | 1.827
308.15 K | 0.7695 | 0.8124 | 0.8523 | 0.9156 | 0.9784 | – | – | 1.444 | 1.64
